# Test results as given in patent publication US9834518B2, “Compounds for inhibiting cell proliferation in EGFR-driven cancers” (ARIAD Pharmaceuticals, Inc., priority 2011, dated 2017).
# Assays:
# [1] = target: human EGFR (native sequence) (Homo sapiens, UniProt P00533); experiment: Kinase inhibition, human EGFR (native sequence); type: biochemical; conditions: 10 μM ATP; 10 pt curves, 3 μM top concentration (singlicates)
# Protocol: (§1) Kinase inhibitory activity of the compounds was measured against human EGFR (native sequence) and against EGFR bearing the L858R mution and the L858R/T790M double mutation (EGFR, L858R, and L858R/T790M, respectively in Table 1). Additional assays can be conducted with EGFR deletion mutants such as delE746-A750 with or without the additional T790M mutation. Assay conditions included 10 pt curves with 3 μM top concentration (singlicates) and 10 μM ATP.
# [2] = target: EGFR bearing the L858R mution (Homo sapiens, UniProt P00533, L858R); experiment: Kinase inhibition, EGFR L858R; type: biochemical; conditions: 10 μM ATP; 10 pt curves, 3 μM top concentration (singlicates)
# Chain of EGFR bearing the L858R mution (P00533 25-1210 L858R): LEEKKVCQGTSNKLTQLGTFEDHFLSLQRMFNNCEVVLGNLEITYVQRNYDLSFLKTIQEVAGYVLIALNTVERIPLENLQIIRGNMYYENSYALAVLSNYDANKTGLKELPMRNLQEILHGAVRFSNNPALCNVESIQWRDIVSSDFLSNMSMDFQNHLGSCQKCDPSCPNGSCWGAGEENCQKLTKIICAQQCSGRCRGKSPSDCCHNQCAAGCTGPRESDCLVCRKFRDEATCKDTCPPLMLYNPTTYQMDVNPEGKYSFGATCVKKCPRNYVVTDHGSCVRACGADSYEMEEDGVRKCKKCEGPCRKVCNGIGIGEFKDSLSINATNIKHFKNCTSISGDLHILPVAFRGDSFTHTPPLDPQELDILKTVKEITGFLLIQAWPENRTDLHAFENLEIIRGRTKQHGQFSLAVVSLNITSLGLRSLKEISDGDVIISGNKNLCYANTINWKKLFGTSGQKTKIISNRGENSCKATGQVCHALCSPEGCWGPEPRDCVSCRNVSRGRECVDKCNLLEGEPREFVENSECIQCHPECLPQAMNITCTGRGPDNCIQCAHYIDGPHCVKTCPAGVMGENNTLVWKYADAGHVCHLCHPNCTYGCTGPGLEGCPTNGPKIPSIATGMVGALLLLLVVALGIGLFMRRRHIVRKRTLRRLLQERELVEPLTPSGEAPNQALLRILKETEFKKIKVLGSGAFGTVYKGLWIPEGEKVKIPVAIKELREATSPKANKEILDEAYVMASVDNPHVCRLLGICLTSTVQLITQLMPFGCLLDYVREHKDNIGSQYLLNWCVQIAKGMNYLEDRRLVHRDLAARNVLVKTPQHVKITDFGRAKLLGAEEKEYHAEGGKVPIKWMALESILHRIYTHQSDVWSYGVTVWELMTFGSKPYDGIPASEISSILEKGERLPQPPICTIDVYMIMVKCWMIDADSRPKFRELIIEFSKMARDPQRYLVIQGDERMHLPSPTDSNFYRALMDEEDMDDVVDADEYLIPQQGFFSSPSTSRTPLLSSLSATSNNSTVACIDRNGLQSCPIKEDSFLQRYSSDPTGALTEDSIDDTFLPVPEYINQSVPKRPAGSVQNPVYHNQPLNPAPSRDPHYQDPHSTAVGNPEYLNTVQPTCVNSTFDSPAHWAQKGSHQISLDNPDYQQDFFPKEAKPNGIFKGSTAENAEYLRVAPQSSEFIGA
# Protocol: as §1
# [3] = target: EGFR bearing the L858R/T790M double mutation (Homo sapiens, UniProt P00533, L858R/T790M); experiment: Kinase inhibition, EGFR L858R/T790M; type: biochemical; conditions: 10 μM ATP; 10 pt curves, 3 μM top concentration (singlicates)
# Chain of EGFR bearing the L858R/T790M double mutation (P00533 25-1210 T790M/L858R): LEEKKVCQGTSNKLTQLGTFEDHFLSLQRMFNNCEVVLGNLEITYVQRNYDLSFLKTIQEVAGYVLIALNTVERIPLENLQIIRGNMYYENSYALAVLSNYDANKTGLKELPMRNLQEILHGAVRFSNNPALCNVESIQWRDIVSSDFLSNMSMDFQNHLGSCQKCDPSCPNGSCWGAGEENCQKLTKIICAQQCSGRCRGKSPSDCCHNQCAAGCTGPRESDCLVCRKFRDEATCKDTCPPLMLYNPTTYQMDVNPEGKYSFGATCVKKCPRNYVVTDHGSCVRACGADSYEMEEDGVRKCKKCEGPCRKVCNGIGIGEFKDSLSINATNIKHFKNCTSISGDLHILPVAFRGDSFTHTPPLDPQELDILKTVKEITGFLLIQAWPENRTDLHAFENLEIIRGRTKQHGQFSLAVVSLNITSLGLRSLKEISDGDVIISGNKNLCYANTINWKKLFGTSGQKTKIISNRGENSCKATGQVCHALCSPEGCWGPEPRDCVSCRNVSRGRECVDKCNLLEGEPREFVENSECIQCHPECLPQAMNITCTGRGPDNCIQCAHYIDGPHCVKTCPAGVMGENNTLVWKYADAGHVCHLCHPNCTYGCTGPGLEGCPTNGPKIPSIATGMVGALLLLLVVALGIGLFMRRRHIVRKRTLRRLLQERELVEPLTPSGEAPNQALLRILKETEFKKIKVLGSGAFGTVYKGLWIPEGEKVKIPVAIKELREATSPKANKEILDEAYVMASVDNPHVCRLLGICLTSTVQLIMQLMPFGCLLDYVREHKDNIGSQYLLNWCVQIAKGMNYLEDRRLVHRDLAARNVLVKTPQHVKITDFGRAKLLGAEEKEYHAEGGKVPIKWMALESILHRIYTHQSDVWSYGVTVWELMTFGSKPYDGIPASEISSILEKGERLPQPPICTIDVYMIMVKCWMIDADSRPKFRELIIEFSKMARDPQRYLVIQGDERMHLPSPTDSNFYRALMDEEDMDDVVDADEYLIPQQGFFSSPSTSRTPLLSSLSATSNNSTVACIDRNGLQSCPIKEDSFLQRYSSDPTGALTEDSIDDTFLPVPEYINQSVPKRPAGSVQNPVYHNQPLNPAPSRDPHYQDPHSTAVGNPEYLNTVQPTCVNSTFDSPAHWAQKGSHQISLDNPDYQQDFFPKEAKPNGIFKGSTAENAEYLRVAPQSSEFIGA
# Protocol: as §1
# BAF3 PARENTAL = experiment: Cell proliferation (MTT), BAF3 parental; type: cell-based; conditions: Mus musculus
# Protocol: (§2) We also assessed the antiproliferative activity of compounds of Formula (I) against BaF3 cells expressing the target EGFR mutations or control (i.e., cell lines expressing wildtype EGFR). Assays were conducted using MTT.
# [4] = target: BAF3 EGFR DEL T790M PURO POOL (Homo sapiens, UniProt P00533, DEL746-750/T790M, cells depend on it); experiment: Cell proliferation (MTT), BAF3 EGFR DEL T790M; type: cell-based
# Chain of BAF3 EGFR DEL T790M PURO POOL (P00533 with tags, fused parts or gaps DEL746-750/T790M): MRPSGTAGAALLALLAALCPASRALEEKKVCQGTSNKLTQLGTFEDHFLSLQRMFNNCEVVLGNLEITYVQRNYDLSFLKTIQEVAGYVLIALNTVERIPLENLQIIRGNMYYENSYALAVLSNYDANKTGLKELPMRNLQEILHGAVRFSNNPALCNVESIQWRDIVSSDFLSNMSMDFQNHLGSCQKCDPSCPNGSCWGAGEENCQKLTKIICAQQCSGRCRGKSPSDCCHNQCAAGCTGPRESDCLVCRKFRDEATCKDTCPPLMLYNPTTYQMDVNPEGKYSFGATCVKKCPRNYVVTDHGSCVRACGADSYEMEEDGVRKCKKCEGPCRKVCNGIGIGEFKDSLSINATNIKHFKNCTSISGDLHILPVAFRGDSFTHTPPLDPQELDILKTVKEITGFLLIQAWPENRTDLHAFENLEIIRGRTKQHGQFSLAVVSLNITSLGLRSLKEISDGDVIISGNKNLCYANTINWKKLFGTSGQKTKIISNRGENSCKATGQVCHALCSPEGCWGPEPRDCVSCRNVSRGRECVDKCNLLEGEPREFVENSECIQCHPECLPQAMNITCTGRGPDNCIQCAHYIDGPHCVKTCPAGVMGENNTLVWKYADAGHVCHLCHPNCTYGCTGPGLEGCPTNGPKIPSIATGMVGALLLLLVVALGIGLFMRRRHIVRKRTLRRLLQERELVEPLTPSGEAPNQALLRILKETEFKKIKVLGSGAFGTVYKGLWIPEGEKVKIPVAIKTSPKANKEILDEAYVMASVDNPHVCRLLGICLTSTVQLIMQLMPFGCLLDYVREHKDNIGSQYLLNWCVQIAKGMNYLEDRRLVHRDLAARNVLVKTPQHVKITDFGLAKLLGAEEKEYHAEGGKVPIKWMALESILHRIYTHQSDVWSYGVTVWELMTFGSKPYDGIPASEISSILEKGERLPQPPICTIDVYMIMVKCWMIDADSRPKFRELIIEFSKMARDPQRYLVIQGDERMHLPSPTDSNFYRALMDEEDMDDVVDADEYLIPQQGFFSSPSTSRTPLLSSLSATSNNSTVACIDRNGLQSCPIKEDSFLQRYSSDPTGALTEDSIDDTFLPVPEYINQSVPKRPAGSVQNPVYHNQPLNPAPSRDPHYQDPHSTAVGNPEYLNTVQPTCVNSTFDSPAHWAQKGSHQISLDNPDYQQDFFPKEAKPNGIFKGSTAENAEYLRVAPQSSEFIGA
# Protocol: as §2
# [5] = tested on: BAF3 EGFR L858R-T790M PURO POOL; experiment: Cell proliferation (MTT), BAF3 EGFR L858R-T790M; type: cell-based; conditions: Ba/F3 EGFR
# Protocol: as §2
# Chain of human EGFR (native sequence) (P00533 25-1210): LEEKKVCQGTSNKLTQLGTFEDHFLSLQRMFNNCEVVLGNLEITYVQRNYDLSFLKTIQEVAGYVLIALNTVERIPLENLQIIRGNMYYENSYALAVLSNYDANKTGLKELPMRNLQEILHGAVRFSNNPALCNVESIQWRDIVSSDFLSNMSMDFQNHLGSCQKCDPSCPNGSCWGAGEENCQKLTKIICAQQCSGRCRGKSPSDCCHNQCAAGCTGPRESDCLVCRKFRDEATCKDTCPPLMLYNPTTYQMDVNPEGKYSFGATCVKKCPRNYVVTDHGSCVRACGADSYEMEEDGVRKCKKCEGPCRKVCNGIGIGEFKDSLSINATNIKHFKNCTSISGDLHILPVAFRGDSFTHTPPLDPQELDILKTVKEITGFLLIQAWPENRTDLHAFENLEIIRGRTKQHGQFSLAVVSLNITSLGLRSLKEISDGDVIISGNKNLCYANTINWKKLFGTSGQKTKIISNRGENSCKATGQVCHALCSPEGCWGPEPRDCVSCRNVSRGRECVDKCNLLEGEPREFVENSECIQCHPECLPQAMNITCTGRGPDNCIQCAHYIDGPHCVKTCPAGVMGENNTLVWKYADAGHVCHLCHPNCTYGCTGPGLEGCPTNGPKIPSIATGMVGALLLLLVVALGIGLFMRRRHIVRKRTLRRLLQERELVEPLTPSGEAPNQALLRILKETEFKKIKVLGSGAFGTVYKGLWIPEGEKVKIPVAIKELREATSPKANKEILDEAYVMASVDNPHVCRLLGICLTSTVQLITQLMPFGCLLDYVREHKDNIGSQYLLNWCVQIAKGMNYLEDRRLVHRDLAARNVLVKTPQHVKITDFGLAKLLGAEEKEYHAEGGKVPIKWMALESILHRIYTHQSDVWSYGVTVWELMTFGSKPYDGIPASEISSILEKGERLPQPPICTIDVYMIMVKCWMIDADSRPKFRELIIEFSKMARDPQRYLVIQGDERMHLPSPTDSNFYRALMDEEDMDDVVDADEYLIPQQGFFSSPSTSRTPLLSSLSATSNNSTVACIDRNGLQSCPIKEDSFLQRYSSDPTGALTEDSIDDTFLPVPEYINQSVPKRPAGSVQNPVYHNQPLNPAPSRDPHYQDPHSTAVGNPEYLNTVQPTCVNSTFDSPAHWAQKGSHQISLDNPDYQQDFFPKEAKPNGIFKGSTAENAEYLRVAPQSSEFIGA
SMILES,IC50 [1] [nM],IC50 [2] [nM],IC50 [3] [nM],IC50 (BAF3 PARENTAL) [nM],IC50 [4] [nM],IC50 [5] [nM]
"COc1ccc(NC(=O)/C=C/CN(C)C)cc1Nc1ncc(Cl)c(Nc2ccccc2P(C)(C)=O)n1 [Example 2, (E)-N-(3-((5-chloro-4-((2-(dimethylphosphoryl)phenyl)amino)pyrimidin-2-yl)amino)-4-methoxyphenyl)-4-(dimethylamino)but-2-enamide]",101 to 250,< 51,< 51,≥ 250,< 51,51 to 100
"C=CC(=O)Nc1cccc(Nc2ncc(Cl)c(Nc3ccccc3P(C)(C)=O)n2)c1 [Example 5d, N-(3-((5-chloro-4-((2-(dimethylphosphoryl)phenyl)amino)pyrimidin-2-yl)amino)phenyl)acrylamide]",101 to 250,< 51,< 51,51 to 100,< 51,< 51
"COc1ccc(NC(=O)C2(C)CO2)cc1Nc1ncc(Cl)c(Nc2ccccc2P(C)(C)=O)n1 (stereo not drawn) [Example 10, N-(3-((5-chloro-4-((2-(dimethylphosphoryl)phenyl)amino)pyrimidin-2-yl)amino)-4-methoxyphenyl)-2-methyloxirane-2-carboxamide]",< 51,< 51,< 51,≥ 250,< 51,< 51
"C=CC(=O)Nc1ccc(OC)c(Nc2ncc(C)c(Nc3ccccc3P(C)(C)=O)n2)c1 [Example 64, N-(3-((4-((2-(dimethylphosphoryl)phenyl)amino)-5-methylpyrimidin-2-yl)amino)-4-methoxyphenyl)acrylamide]",< 51,< 51,< 51,≥ 250,< 51,< 51
"C=CC(=O)Nc1cc(Nc2ncc(Cl)c(Nc3ccccc3P(C)(C)=O)n2)c(OC)cc1O[C@@H](COC)CN(CC)CC (stereo in doubt) [Example 29, rac-(R)—N-(5-((5-chloro-4-((2-(dimethylphosphoryl)phenyl)amino)pyrimidin-2-yl)amino)-2-((1-(diethylamino)-3-methoxypropan-2-yl)oxy)-4-methoxyphenyl)acrylamide]",< 51,< 51,< 51,≥ 250,< 51,< 51
"C=CC(=O)Nc1ccc(OC)c(Nc2ncc(CC)c(Nc3ccccc3P(C)(C)=O)n2)c1 [Example 63, N-(3-((4-((2-(dimethylphosphoryl)phenyl)amino)-5-ethylpyrimidin-2-yl)amino)-4-methoxyphenyl)acrylamide]",< 51,< 51,< 51,≥ 250,< 51,< 51
"C=CC(=O)Nc1cc(Nc2ncc(Cl)c(Nc3ccccc3P(C)(C)=O)n2)c(OC)cc1OCCN(C)C [Example 19, N-(5-((5-chloro-4-((2-(dimethylphosphoryl)phenyl)amino)pyrimidin-2-yl)amino)-2-(2-(dimethylamino)ethoxy)-4-methoxyphenyl)acrylamide]",< 51,< 51,< 51,≥ 250,< 51,< 51
"C=CC(=O)Nc1cc(Nc2ncc(Cl)c(Nc3ccccc3P(C)(C)=O)n2)c(OC)cc1N(C)CCN(CC)CC [Example 33, N-(5-((5-chloro-4-((2-(dimethylphosphoryl)phenyl)amino)pyrimidin-2-yl)amino)-2-((2-(diethylamino)ethyl)(methyl)amino)-4-methoxyphenyl)acrylamide]",< 51,< 51,< 51,≥ 250,< 51,< 51
C=CC(=O)Nc1cc(Nc2ncc(Cl)c(Nc3ccccc3P(C)(C)=O)n2)c(OC)cc1F [Example 22],< 51,< 51,< 51,≥ 250,< 51,< 51
"C=CC(=O)Nc1cc(Nc2ncc(Cl)c(Nc3ccccc3P(C)(C)=O)n2)c(OC)cc1OCCOC [Example 25, N-(5-((5-chloro-4-((2-(dimethylphosphoryl)phenyl)amino)pyrimidin-2-yl)amino)-4-methoxy-2-(2-methoxyethoxy)phenyl)acrylamide]",≥ 250,< 51,< 51,≥ 250,< 51,51 to 100
"C=CC(=O)Nc1ccc(OC)c(Nc2ncc(Cl)c(Nc3cccc(C)c3P(=O)(CC)CC)n2)c1 [Example 50, N-(3-((5-chloro-4-((2-(diethylphosphoryl)-3-methylphenyl)amino)pyrimidin-2-yl)amino)-4-methoxyphenyl)acrylamide]",< 51,< 51,< 51,≥ 250,< 51,< 51
"COc1cc(P(C)(C)=O)ccc1Nc1ncc(Cl)c(Oc2cccc(NC(=O)/C=C/CN(C)C)c2)n1 [Example 51, (E)-N-(3-((5-chloro-2-((4-(dimethylphosphoryl)-2-methoxyphenyl)amino)pyrimidin-4-yl)oxy)phenyl)-4-(dimethylamino)but-2-enamide]",51 to 100,< 51,< 51,≥ 250,≥ 250,≥ 250
"C=CC(=O)Nc1cc(Nc2ncc(Cl)c(Nc3ccccc3P(C)(C)=O)n2)c(OC)cc1N1CCOCC1 [Example 32, N-(5-((5-chloro-4-((2-(dimethylphosphoryl)phenyl)amino)pyrimidin-2-yl)amino)-4-methoxy-2-morpholinophenyl)acrylamide]",≥ 250,< 51,< 51,≥ 250,< 51,51 to 100
"C=CC(=O)Nc1cc(Nc2ncc(Cl)c(Nc3ccccc3P(=O)(CC)CC)n2)c(OC)cc1F [Example 48, N-(5-((5-chloro-4-((2-(diethylphosphoryl)phenyl)amino)pyrimidin-2-yl)amino)-2-fluoro-4-methoxyphenyl)acrylamide]",< 51,< 51,< 51,≥ 250,< 51,< 51
"C=CC(=O)Nc1cc(Nc2ncc(Cl)c(Nc3ccccc3P(C)(C)=O)n2)c(OC)cc1N1CCN(C)CC1 [Example 18, N-(5-((5-chloro-4-((2-(dimethylphosphoryl)phenyl)amino)pyrimidin-2-yl)amino)-4-methoxy-2-(4-methylpiperazin-1-yl)phenyl)acrylamide]",51 to 100,< 51,< 51,≥ 250,< 51,51 to 100
"C=CC(=O)Nc1cc(Nc2ncc(Cl)c(Nc3ccccc3P(C)(C)=O)n2)c(OC)cc1O[C@H](COC)CN(CC)CC (stereo in doubt) [Example 30, rac-(R)—N-(5-((5-chloro-4-((2-(dimethylphosphoryl)phenyl)amino)pyrimidin-2-yl)amino)-2-((1-(diethylamino)-3-methoxypropan-2-yl)oxy)-4-methoxyphenyl)acrylamide]",< 51,< 51,< 51,≥ 250,< 51,< 51
"C=CC(=O)Nc1cc(Nc2ncc(Cl)c(Nc3ccccc3P(C)(C)=O)n2)c(OC)cc1OC(COC)CN(C)C (stereo not drawn) [Example 28, N-(5-((5-chloro-4-((2-(dimethylphosphoryl)phenyl)amino)pyrimidin-2-yl)amino)-2-((1-(dimethylamino)-3-methoxypropan-2-yl)oxy)-4-methoxyphenyl)acrylamide]",< 51,< 51,< 51,≥ 250,< 51,< 51
"C=CC(=O)Nc1cc(Nc2ncc(CC)c(Nc3ccccc3P(C)(C)=O)n2)c(OC)cc1N(C)CCN(CC)CC [Example 62, N-(2-((2-(diethylamino)ethyl)(methyl)amino)-5-((4-((2-(dimethylphosphoryl)phenyl)amino)-5-ethylpyrimidin-2-yl)amino)-4-methoxyphenyl)acrylamide]",51 to 100,< 51,51 to 100,≥ 250,< 51,< 51
"C=CC(=O)Nc1cc(Nc2ncc(Cl)c(Nc3ccccc3P(C)(C)=O)n2)c(OC)cc1N(C)CCCN(C)C [Example 34, N-(5-((5-chloro-4-((2-(dimethylphosphoryl)phenyl)amino)pyrimidin-2-yl)amino)-2-((3-(dimethylamino)propyl)(methyl)amino)-4-methoxyphenyl)acrylamide]",≥ 250,101 to 250,51 to 100,≥ 250,< 51,101 to 250
"C=CC(=O)Nc1cc(Nc2ncc(Cl)c(Nc3ccccc3P(=O)(CC)CC)n2)c(OC)cc1OCCN(C)C [Example 52, N-(5-((5-chloro-4-((2-(diethylphosphoryl)phenyl)amino)pyrimidin-2-yl)amino)-2-(2-(dimethylamino)ethoxy)-4-methoxyphenyl)acrylamide]",< 51,< 51,< 51,≥ 250,< 51,< 51
